System: ROS 17/2 cells
Assay: Anti-PDGF antibody neutralization in ROS 17/2 cells
Type: cell-based, rat
Conditions: intermediate doses of HBMCM preparations
Procedure: Anti-PDGF antibody neutralization experiments were carried out with polyclonal antiserum prepared in rabbits against PDGF. PDGF or HBMCM-derived preparations were added to ROS 17/2 cells in the presence or absence of antibody and examined for effects on [^3 H]TdR incorporation.

## PDGF
  effect of polyclonal anti-PDGF antibodies on mitogenic effect: inhibited PDGF-stimulated replication
